Measured values published in US6613507B1 (priority 2000, dated 2003).

Columns and labels:
hepatitis C = conditions: human, in vivo; cited from earlier work
[1] = assay type: physicochemical; conditions: pH 7.4
[2] = dog, in vivo; cited from earlier work

Structure (SMILES) | biochemical and virological markers (hepatitis C) | amino group protonated at physiological pH [1] | increase in blood pressure [2]
NC12CC3CC(CC(C3)C1)C2 [amantadine, 1-adamantanamine] | improved | over 90% | 
CNC[C@H](O)c1cccc(O)c1 [phenylephrine] |  |  | 20%
